Numbers after ± are expanded uncertainties.
Conditions: 101.33 kPa, Liquid; for viscosity: Concentric cylinders viscometry; for mass density: Vibrating tube method

CCCCC/C=C\C/C=C\CCCCCCCC(=O)OC [methyl (Z,Z)-9,12-octadecadienate]
Conditions	mass density [kg/m3]	viscosity [mPa·s]
278.15 K	897.2 ± 1	7.466 ± 0.069
283.15 K	893.5 ± 1	6.466 ± 0.06
288.15 K	889.9 ± 1	5.655 ± 0.053
293.15 K	886.2 ± 1	4.982 ± 0.047
298.15 K	882.5 ± 1	4.428 ± 0.042
303.15 K	878.8 ± 1	3.961 ± 0.037
308.15 K	875.2 ± 1	3.567 ± 0.034
313.15 K	871.5 ± 1	3.227 ± 0.031
318.15 K	867.9 ± 1	2.936 ± 0.028
323.15 K	864.3 ± 1	2.682 ± 0.026
328.15 K	860.7 ± 1	2.461 ± 0.024
333.15 K	857 ± 1	2.266 ± 0.022
338.15 K	853.4 ± 1	2.093 ± 0.02
343.15 K	849.8 ± 1	1.94 ± 0.019
348.15 K	846.1 ± 1	1.804 ± 0.018
353.15 K	842.5 ± 1	1.682 ± 0.017
358.15 K	838.7 ± 1	–
363.15 K	835.1 ± 1	–

CCCCCCCC/C=C\CCCCCCCC(=O)OC [methyl cis-9-octadecenoate]
Conditions	mass density [kg/m3]	viscosity [mPa·s]
283.15 K	881.4 ± 1	8.699 ± 0.081
288.15 K	877.7 ± 1	7.452 ± 0.069
293.15 K	874.1 ± 1	6.45 ± 0.06
298.15 K	870.4 ± 1	5.634 ± 0.053
303.15 K	866.8 ± 1	4.961 ± 0.046
308.15 K	863.1 ± 1	4.401 ± 0.041
313.15 K	859.5 ± 1	3.93 ± 0.037
318.15 K	855.9 ± 1	3.531 ± 0.033
323.15 K	852.3 ± 1	3.189 ± 0.03
328.15 K	848.7 ± 1	2.894 ± 0.028
333.15 K	845.1 ± 1	2.638 ± 0.025
338.15 K	841.5 ± 1	2.416 ± 0.023
343.15 K	837.9 ± 1	2.222 ± 0.022
348.15 K	834.3 ± 1	2.05 ± 0.02
353.15 K	830.7 ± 1	1.897 ± 0.019

CCCCCCCCCC(=O)OC [methyl decanoate]
Conditions	mass density [kg/m3]	viscosity [mPa·s]
278.15 K	884.7 ± 1	2.989 ± 0.029
283.15 K	880.6 ± 1	2.654 ± 0.025
288.15 K	876.4 ± 1	2.373 ± 0.023
293.15 K	872.3 ± 1	2.136 ± 0.021
298.15 K	868.2 ± 1	1.933 ± 0.019
303.15 K	864.1 ± 1	1.76 ± 0.017
308.15 K	860 ± 1	1.609 ± 0.016
313.15 K	856 ± 1	1.477 ± 0.015
318.15 K	851.9 ± 1	1.361 ± 0.014
323.15 K	847.8 ± 1	1.259 ± 0.013
328.15 K	843.6 ± 1	1.167 ± 0.012
333.15 K	839.5 ± 1	1.086 ± 0.011
338.15 K	835.3 ± 1	1.013 ± 0.011
343.15 K	831.2 ± 1	0.9477 ± 0.01
348.15 K	827 ± 1	0.8886 ± 0.0098
353.15 K	822.9 ± 1	0.8342 ± 0.0093
358.15 K	818.7 ± 1	0.786 ± 0.0089
363.15 K	814.5 ± 1	0.7421 ± 0.0085

CCCCCCCCCCCC(=O)OC [methyl dodecanoate]
Conditions	mass density [kg/m3]	viscosity [mPa·s]
283.15 K	877.7 ± 1.2	4.068 ± 0.052
288.15 K	873.7 ± 1.2	3.577 ± 0.046
293.15 K	869.8 ± 1.2	3.167 ± 0.041
298.15 K	865.8 ± 1.2	2.824 ± 0.036
303.15 K	861.8 ± 1.2	2.536 ± 0.033
308.15 K	857.9 ± 1.2	2.289 ± 0.03
313.15 K	853.9 ± 1.2	2.078 ± 0.027
318.15 K	850 ± 1.2	1.894 ± 0.025
323.15 K	846.1 ± 1.2	1.735 ± 0.023
328.15 K	842.1 ± 1.2	1.595 ± 0.021
333.15 K	838.1 ± 1.2	1.471 ± 0.02
338.15 K	834.2 ± 1.2	1.362 ± 0.018
343.15 K	830.2 ± 1.2	1.265 ± 0.017
348.15 K	826.2 ± 1.2	1.178 ± 0.016
353.15 K	822.3 ± 1.2	1.1 ± 0.015

CCCCCCCCCCCCCCCC(=O)OC [methyl hexadecanoate]
Conditions	mass density [kg/m3]	viscosity [mPa·s]
308.15 K	854.5 ± 1	4.212 ± 0.04
313.15 K	850.8 ± 1	3.755 ± 0.035
318.15 K	847 ± 1	3.368 ± 0.032
323.15 K	843.3 ± 1	3.038 ± 0.029
328.15 K	839.6 ± 1	2.754 ± 0.026
333.15 K	835.8 ± 1	2.508 ± 0.024
338.15 K	832.1 ± 1	2.295 ± 0.022
343.15 K	828.4 ± 1	2.107 ± 0.021
348.15 K	824.7 ± 1	1.942 ± 0.019
353.15 K	821 ± 1	1.796 ± 0.018
358.15 K	817.3 ± 1	1.666 ± 0.017
363.15 K	813.6 ± 1	1.55 ± 0.015
